We go through eleven molecules from ChEMBL document CHEMBL1201862, “PubChem BioAssay data set” (2004).

Among the test systems are SK-OV-3; A549; SF-539; EKVX; MDA-MB-435; LOX IMVI; UACC-257; MDA-MB-231; CCRF-CEM; HCT-15; MCF7; SK-MEL-2; SNB-75; UACC-62; RXF 393; Hs-578T; RPMI-8226; HCT-116; MOLT-4.
Assay in all cases: NCI tumour cell line growth inhibition, 48 h

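Cultured in 96-well plates, cells were exposed to test compound for 48 hours across five concentrations. At the GI50, growth is halved.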 Activity calls are given as the source filed them. No stated cut-off is given here; in the data, active = GI50 up to about 1.1 µM and inactive = higher.

On to `CCOC(=O)C(NC(=O)c1ccccc1)(c1ccc(S(=O)(=O)Nc2onc(C)c2C)cc1)C(F)(F)F` (centres undefined), for which the GI50 with SK-OV-3 was 0.495 µM (active); with A549, > 100 µM (inactive); in the experiment on SF-539, > 100 µM (inactive); in the experiment on EKVX, > 100 µM (inactive); in the experiment on MDA-MB-435 it was > 100 µM (inactive); with LOX IMVI it was > 100 µM (inactive). Further, the GI50 is > 100 µM (inactive) with UACC-257; > 100 µM (inactive) with MDA-MB-231; > 100 µM (inactive) with CCRF-CEM; more than 100 µM with HCT-15; > 100 µM (inactive) in the experiment with MCF7; > 100 µM (inactive) in the experiment with SK-MEL-2. The GI50 with SNB-75, with UACC-62, in the experiment with RXF 393, with Hs-578T, with RPMI-8226 and with HCT-116 was > 100 µM (inactive) each time. Also, the GI50 in the experiment on MOLT-4 is > 100 µM (inactive).
As for `COC(=O)C(CCC1C=CN(S(=O)(=O)c2ccc(C)cc2)C1)/N=C/c1ccccc1` (centres undefined), the GI50 in the experiment with SK-OV-3 was 80 µM (inactive); in the experiment on A549, 42.4 µM (inactive); in the experiment on SF-539, 38.6 µM (inactive); in the experiment on EKVX, 42.2 µM (inactive); in the experiment on MDA-MB-435, 33.2 µM (inactive); in the experiment with LOX IMVI, 47.4 µM (inactive). The GI50 with UACC-257 was 50 µM (inactive); in the experiment on MDA-MB-231, 39.6 µM (inactive); in the experiment on CCRF-CEM, 1.99 µM (inactive); with HCT-15 it was 88.5 µM; in the experiment with MCF7, 34.2 µM (inactive); in the experiment on SK-MEL-2, 20.1 µM (inactive). For the same molecule, the GI50 in the experiment on SNB-75 is 52.5 µM (inactive); in the experiment on UACC-62, 32.8 µM (inactive); in the experiment with RXF 393, 75.5 µM (inactive); with Hs-578T, > 100 µM (inactive); in the experiment with RPMI-8226, 28.1 µM (inactive); in the experiment on HCT-116, 33.4 µM (inactive). In addition, the GI50 with MOLT-4 was 32.8 µM (inactive).
Take `CS(=O)(=O)N(CC(=O)O)Cc1ccccc1`: the GI50 in the experiment on SK-OV-3, with A549, in the experiment with SF-539, in the experiment with EKVX, in the experiment with MDA-MB-435 and in the experiment on LOX IMVI was > 100 µM (inactive) throughout. Also, the GI50 was > 100 µM (inactive) with UACC-257; > 100 µM (inactive) in the experiment with MDA-MB-231; > 100 µM (inactive) with CCRF-CEM; more than 100 µM in the experiment on HCT-15; > 100 µM (inactive) with MCF7; > 100 µM (inactive) with SK-MEL-2. Also, the GI50 with SNB-75, with UACC-62, in the experiment on RXF 393, with Hs-578T, in the experiment with RPMI-8226 and in the experiment with HCT-116 was > 100 µM (inactive) throughout. The GI50 with MOLT-4 was > 100 µM (inactive).
Consider `CC1(C)C2CCC1(CC(=O)O)C(Cl)C2` (centres undefined), for which the GI50 in the experiment with SK-OV-3, in the experiment with A549, with SF-539, in the experiment with EKVX, with MDA-MB-435 and in the experiment on LOX IMVI was > 100 µM (inactive) throughout. For the same molecule, the GI50 was > 100 µM (inactive) with UACC-257; > 100 µM (inactive) in the experiment with MDA-MB-231; > 100 µM (inactive) in the experiment on CCRF-CEM; more than 100 µM in the experiment with HCT-15; > 100 µM (inactive) with MCF7; > 100 µM (inactive) in the experiment with SK-MEL-2. Also, the GI50 in the experiment with SNB-75, in the experiment on UACC-62, in the experiment on RXF 393, in the experiment on Hs-578T, in the experiment on RPMI-8226 and in the experiment on HCT-116 was > 100 µM (inactive) each time. In addition, the GI50 in the experiment on MOLT-4 was > 100 µM (inactive).
`O=c1cc(/N=N\c2ccc(Cl)c(Cl)c2)[nH]c(=O)[nH]1`: the GI50 with SK-OV-3 is 15.8 µM (inactive); with A549, 15.3 µM (inactive); in the experiment on SF-539 it was 2.61 µM (inactive); in the experiment with EKVX it was 1.6 µM (inactive); in the experiment on MDA-MB-435 it was 6.55 µM (inactive); with LOX IMVI, 1.76 µM (inactive). The GI50 with UACC-257 was 2.38 µM (inactive); with MDA-MB-231 it was 1.85 µM (inactive); with CCRF-CEM it was 0.033 µM (active); in the experiment with HCT-15, 1.72 µM; in the experiment with MCF7 it was 1.64 µM (inactive); in the experiment on SK-MEL-2, 5.2 µM (inactive). Also, the GI50 in the experiment with SNB-75 is 9.62 µM (inactive); in the experiment with UACC-62 it was 2.01 µM (inactive); with RXF 393, 1.77 µM (inactive); with Hs-578T, 2.57 µM (inactive); in the experiment with RPMI-8226, 2.14 µM (inactive); in the experiment with HCT-116 it was 1.75 µM (inactive). The GI50 in the experiment on MOLT-4 was 1.97 µM (inactive).
For `N#C/C(=C/n1c(=S)[nH]c2ccc([N+](=O)[O-])cc21)C(N)=O`, the GI50 in the experiment on SK-OV-3 is > 100 µM (inactive); in the experiment on A549 it was > 100 µM (inactive); in the experiment on SF-539, > 100 µM (inactive); in the experiment on EKVX it was 22.2 µM (inactive); in the experiment with MDA-MB-435 it was > 100 µM (inactive); in the experiment with LOX IMVI, > 100 µM (inactive). The GI50 is > 100 µM (inactive) with UACC-257; > 100 µM (inactive) with MDA-MB-231; > 100 µM (inactive) in the experiment on CCRF-CEM; more than 100 µM in the experiment with HCT-15; > 100 µM (inactive) in the experiment with MCF7; > 100 µM (inactive) in the experiment with SK-MEL-2. The GI50 with SNB-75 was 19.7 µM (inactive); in the experiment with UACC-62, > 100 µM (inactive); with RXF 393, > 100 µM (inactive); in the experiment with Hs-578T, > 100 µM (inactive); in the experiment with RPMI-8226, > 100 µM (inactive); with HCT-116, > 100 µM (inactive). The GI50 in the experiment with MOLT-4 is > 100 µM (inactive).
Turning to `CCCCCCCCCCCCCCCC[N+](C)(C)CCl`, the GI50 was 6.87 µM (inactive) in the experiment with SK-OV-3; 5 µM (inactive) in the experiment on A549; 2.4 µM (inactive) in the experiment on SF-539; 8.61 µM (inactive) with EKVX; 3.07 µM (inactive) in the experiment with MDA-MB-435; 1.51 µM (inactive) in the experiment with LOX IMVI. Also, the GI50 in the experiment with UACC-257 was 4.71 µM (inactive); in the experiment on MDA-MB-231, 2.02 µM (inactive); in the experiment on CCRF-CEM, 1.15 µM (inactive); in the experiment on HCT-15 it was 3.59 µM; with MCF7, 2.69 µM (inactive); in the experiment with SK-MEL-2, 13.3 µM (inactive). For the same molecule, the GI50 is 1.86 µM (inactive) in the experiment on SNB-75; 2.29 µM (inactive) in the experiment on UACC-62; 1.32 µM (inactive) in the experiment with RXF 393; 1.85 µM (inactive) with Hs-578T; 1.76 µM (inactive) with RPMI-8226; 2.14 µM (inactive) with HCT-116. The GI50 with MOLT-4 is 1.84 µM (inactive).
On to `N#Cc1nc(CCC(c2nc(C#N)c(N)o2)N2C(=O)c3ccccc3C2=O)oc1N` (centres undefined), for which the GI50 in the experiment with SK-OV-3, with A549, in the experiment with SF-539, in the experiment with EKVX, with MDA-MB-435 and with LOX IMVI was > 100 µM (inactive) each time. Besides, the GI50 was > 100 µM (inactive) with UACC-257; > 100 µM (inactive) with MDA-MB-231; > 10 µM (inactive) with CCRF-CEM; more than 100 µM with HCT-15; > 100 µM (inactive) in the experiment on MCF7; > 100 µM (inactive) in the experiment with SK-MEL-2. Besides, the GI50 in the experiment on SNB-75, in the experiment on UACC-62, in the experiment on RXF 393, in the experiment on Hs-578T, in the experiment on RPMI-8226 and with HCT-116 was > 100 µM (inactive) each time. Also, the GI50 in the experiment with MOLT-4 was 27.8 µM (inactive).
On to `C=C1C(O)C2OC(=O)C(=C)C2C(OC(=O)/C(C)=C/C)CC2(C)OC2C2OC12` (centres undefined), for which the GI50 was 43.6 µM (inactive) in the experiment on SK-OV-3; 19.8 µM (inactive) in the experiment on A549; 6.85 µM (inactive) in the experiment with SF-539; 10.4 µM (inactive) in the experiment with EKVX; 5.74 µM (inactive) with MDA-MB-435; 6.68 µM (inactive) in the experiment with LOX IMVI. Besides, the GI50 in the experiment on UACC-257 is 15.7 µM (inactive); in the experiment with MDA-MB-231, 8.36 µM (inactive); with CCRF-CEM, 12.6 µM (inactive); with HCT-15 it was 2.55 µM; in the experiment on MCF7, 4.44 µM (inactive); in the experiment with SK-MEL-2, 5.47 µM (inactive). In addition, the GI50 in the experiment with SNB-75 was 10.4 µM (inactive); with UACC-62, 15.3 µM (inactive); in the experiment with RXF 393, 4.85 µM (inactive); with Hs-578T, 20.7 µM (inactive); in the experiment with RPMI-8226, 2.58 µM (inactive); with HCT-116, 5.22 µM (inactive). In addition, the GI50 in the experiment with MOLT-4 is 0.634 µM (active).
Take `COc1ccc(/C(Nc2ccccc2)=C(\CCl)c2ccccc2)cc1OC`: the GI50 in the experiment on SK-OV-3 is > 100 µM (inactive); with A549, 44.6 µM (inactive); in the experiment with SF-539 it was > 100 µM (inactive); in the experiment with EKVX, 24.3 µM (inactive); with MDA-MB-435, 32.8 µM (inactive); in the experiment on LOX IMVI, 10.1 µM (inactive). In addition, the GI50 in the experiment with UACC-257 was 29.2 µM (inactive); in the experiment with MDA-MB-231, 50.4 µM (inactive); in the experiment on CCRF-CEM, 17.3 µM (inactive); in the experiment with HCT-15, 40.7 µM; in the experiment with MCF7, 26.4 µM (inactive); in the experiment with SK-MEL-2, 24.1 µM (inactive). Besides, the GI50 with SNB-75 was 63.2 µM (inactive); in the experiment on UACC-62, 99.1 µM (inactive); with RXF 393, 83.8 µM (inactive); with Hs-578T, > 100 µM (inactive); in the experiment on RPMI-8226 it was 21.2 µM (inactive); in the experiment with HCT-116, 17.7 µM (inactive). Further, the GI50 in the experiment on MOLT-4 was 29.6 µM (inactive).
As to `O=C(Oc1ccc2c(c1)CN(Cc1ccccc1)CO2)c1ccccc1`, the GI50 in the experiment with SK-OV-3 was 16.6 µM (inactive); in the experiment on A549, 19.8 µM (inactive); in the experiment with SF-539 it was 17.3 µM (inactive); in the experiment on EKVX, 16.7 µM (inactive); in the experiment with MDA-MB-435, 21.8 µM (inactive); in the experiment on LOX IMVI, 17.1 µM (inactive). Moreover, the GI50 with UACC-257 was 15.1 µM (inactive); with MDA-MB-231, 19.2 µM (inactive); in the experiment on CCRF-CEM, 10.6 µM (inactive); in the experiment with HCT-15 it was 16.9 µM; in the experiment on MCF7, 16.9 µM (inactive); with SK-MEL-2, 22 µM (inactive). The GI50 was 17.1 µM (inactive) with SNB-75; 16.8 µM (inactive) in the experiment with UACC-62; 15.2 µM (inactive) in the experiment on RXF 393; 23.7 µM (inactive) with Hs-578T; 20.6 µM (inactive) with RPMI-8226; 16 µM (inactive) with HCT-116. For the same molecule, in the experiment on MOLT-4, the GI50 is 10.7 µM (inactive).
